According to patent US8188078B2 (Sanofi-Aventis, priority 2007, dated 2012):
Counter-ions that a name gives are not always drawn.

target: T1, c-MET (Homo sapiens, UniProt P08581); assay: Test A: HTRF Met test in 96-well format; type: biochemical
T1 construct: The recombinant DNA His-Tev-MET (956-1390) in pFastBac(Invitrogen); His (N, cleaved yes); Tev (TEV protease site) (N, cleaved yes); made in house; host or cells: SF21 insect cells (baculovirus, pFastBac)
How it was run: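 Percent inhibition was calculated from the HTRF 665/620 ratio, using Eu-cryptate anti-phosphotyrosine PT66 plus streptavidin-XL added with EDTA and read after 2 h. The reaction ran 10 min at room temperature: 5 nM tag-cleaved MET (956–1390), 10 µM ATP, 1 µg/ml poly-GAT, and compound from 0.17 nM to 10 µM in 3% DMSO.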

T1 sequence (P08581 956-1390): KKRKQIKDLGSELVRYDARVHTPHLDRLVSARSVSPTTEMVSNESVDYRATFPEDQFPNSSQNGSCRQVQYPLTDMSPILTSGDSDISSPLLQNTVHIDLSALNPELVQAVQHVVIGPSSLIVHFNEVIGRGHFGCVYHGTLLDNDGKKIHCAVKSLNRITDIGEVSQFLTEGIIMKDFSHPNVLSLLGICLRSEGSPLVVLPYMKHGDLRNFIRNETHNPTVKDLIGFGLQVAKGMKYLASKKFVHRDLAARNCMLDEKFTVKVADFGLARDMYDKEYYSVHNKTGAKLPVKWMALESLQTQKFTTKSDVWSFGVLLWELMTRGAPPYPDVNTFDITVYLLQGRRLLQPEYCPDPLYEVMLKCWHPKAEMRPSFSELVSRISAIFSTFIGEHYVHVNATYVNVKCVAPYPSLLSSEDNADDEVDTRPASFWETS

IC50, < 100 nM:
CC(Oc1ccc2nc(NC(=O)NCCN3CCOCC3)sc2c1)c1c(Cl)ccc(F)c1Cl (single isomer, unassigned) [Example 25, 1-{6-[(1R*)-(2,6-dichloro-3-fluorophenyl)ethoxy]-1,3-benzothiazol-2-yl}-3-(2-morpholin-4-ylethyl)urea]
C[C@@H](Oc1cc2sc(NC(=O)NCCN3CCOCC3)nc2cc1F)c1c(Cl)ccc(F)c1Cl (single isomer, unassigned) [Example 32, 1-{6-[(1R)-(2,6-dichloro-3-fluorophenyl)ethoxy]-5-fluoro-1,3-benzothiazol-2-yl}-3-(2-morpholin-4-ylethyl)urea or 1-{6-[(1S)-(2,6-dichloro-3-fluorophenyl)ethoxy]-5-fluoro-1,3-benzothiazol-2-yl}-3-(2-morpholin-4-ylethyl)urea]
C[C@@H](Oc1cc2sc(NC(=O)NCCN3CCOCC3)nc2cc1F)c1c(Cl)ccc(F)c1Cl (single isomer, unassigned) [Example 33, 1-{6-[(1R)-(2,6-dichloro-3-fluorophenyl)ethoxy]-5-fluoro-1,3-benzothiazol-2-yl}-3-(2-morpholin-4-ylethyl)urea or 1-{6-[(1S)-(2,6-dichloro-3-fluorophenyl)ethoxy]-5-fluoro-1,3-benzothiazol-2-yl}-3-(2-morpholin-4-ylethyl)urea]
CC(Oc1cc2sc(NC(=O)NCCO)nc2cc1F)c1c(Cl)ccc(F)c1Cl (single isomer, unassigned) [Example 99, 1-{6-[(1R*)-1-(2,6-dichloro-3-fluorophenyl)ethoxy]-5-fluoro-1,3-benzothiazol-2-yl}-3-(2-hydroxyethyl)urea]
CCN1CCN(CCNC(=O)Nc2nc3cc(F)c(OC(C)c4c(Cl)ccc(F)c4Cl)cc3s2)CC1 (single isomer, unassigned) [Example 101, 1-{6-[(1R*)-1-(2,6-dichloro-3-fluorophenyl)ethoxy]-5-fluoro-1,3-benzothiazol-2-yl}-3-[2-(4-ethylpiperazin-1-yl)ethyl]urea]
CCN1CCN(CCNC(=O)Nc2nc3cc(F)c(OC(C)c4c(Cl)ccc(F)c4Cl)cc3s2)CC1 (single isomer, unassigned) [Example 102, 1-{6-[(1S*)-1-(2,6-dichloro-3-fluorophenyl)ethoxy]-5-fluoro-1,3-benzothiazol-2-yl}-3-[2-(4-ethylpiperazin-1-yl)ethyl]urea]
CC(Oc1ccc2nc(NC(=O)NCCN3CCN(C)CC3)sc2c1)c1c(F)ccc(Cl)c1Cl (single isomer, unassigned) [Example 109, 1-{6-[(1R*)-1-(2,3-dichloro-6-fluorophenyl)ethoxy]-1,3-benzothiazol-2-yl}-3-[2-(4-methylpiperazin-1-yl)ethyl]urea]
CC(Oc1cc2sc(NC(=O)NCCN3CCOCC3)nc2cc1F)c1c(F)ccc(Cl)c1Cl (single isomer, unassigned) [Example 112, 1-{6-[(1R*)-1-(2,3-dichloro-6-fluorophenyl)ethoxy]-5-fluoro-1,3-benzothiazol-2-yl}-3-[2-(morpholin-4-yl)ethyl]urea]
CC(Oc1cc2sc(NC(=O)NCCN3CCOCC3)nc2cc1F)c1c(F)ccc(Cl)c1Cl (single isomer, unassigned) [Example 113, 1-{6-[(1S*)-1-(2,3-dichloro-6-fluorophenyl)ethoxy]-5-fluoro-1,3-benzothiazol-2-yl}-3-[2-(morpholin-4-yl)ethyl]urea]
CC(Oc1cc2sc(NC(=O)NCCN3CCN(C)CC3)nc2cc1F)c1c(F)ccc(Cl)c1Cl (single isomer, unassigned) [Example 116, 1-{6-[(1R*)-1-(2,3-dichloro-6-fluorophenyl)ethoxy]-5-fluoro-1,3-benzothiazol-2-yl}-3-[2-(4-methylpiperazin-1-yl)ethyl]urea]
CC(Oc1cc2sc(NC(=O)NCCN3CCN(C)CC3)nc2cc1F)c1c(F)ccc(Cl)c1Cl (single isomer, unassigned) [Example 117, 1-{6-[(1S*)-1-(2,3-dichloro-6-fluorophenyl)ethoxy]-5-fluoro-1,3-benzothiazol-2-yl}-3-[2-(4-methylpiperazin-1-yl)ethyl]urea]
CC(Oc1cc2sc(NC(=O)NCCN3CCCC3)nc2cc1F)c1c(F)ccc(Cl)c1Cl (single isomer, unassigned) [Example 119, 1-{6-[(1R*)-1-(2,3-dichloro-6-fluorophenyl)ethoxy]-5-fluoro-1,3-benzothiazol-2-yl}-3-[2-(pyrrolidin-1-yl)ethyl]urea]
CC(Oc1ccc2nc(NC(=O)NCCN3CCCC3)sc2c1)c1c(F)ccc(Cl)c1Cl (single isomer, unassigned) [Example 121, 1-{6-[(1R*)-(2,3-dichloro-6-fluorophenyl)ethoxy]-1,3-benzothiazol-2-yl}-3-[2-(pyrrolidin-1-yl)ethyl]urea]
CC(Oc1ccc2nc(NC(=O)NCCN3CCOCC3)[nH]c2c1)c1c(Cl)ccc(F)c1Cl (centres unmarked) [Example 4, 4-{2-[({6-[1-(2,6-Dichloro-3-fluorophenyl)ethoxy]-1H-benzimidazol-2-yl}carbamoyl)amino]ethyl}morpholin-4-ium trifluoroacetate]
CC(Oc1ccc2nc(NC(=O)NCCN3CCOCC3)sc2c1)c1c(F)cccc1F (centres unmarked) [Example 18, 1-{6-[1-(2,6-difluorophenyl)ethoxy]-1,3-benzothiazol-2-yl}-3-(2-morpholin-4-ylethyl)urea]
CC(Oc1ccc2nc(NC(=O)NCCN3CCOCC3)sc2c1)c1ccccc1C(F)(F)F (centres unmarked) [Example 19, 1-(2-morpholin-4-ylethyl)-3-(6-{1-[2-(trifluoromethyl)phenyl]ethoxy}-1,3-benzothiazol-2-yl)urea]
CC(Oc1ccc2nc(NC(=O)NCCC3CCNCC3)sc2c1)c1c(Cl)ccc(F)c1Cl (centres unmarked) [Example 39, 1-{6-[1-(2,6-Dichloro-3-fluorophenyl)ethoxy]-1,3-benzothiazol-2-yl}-3-(2-piperidin-4-ylethyl)urea trifluoroacetate]
CC(Oc1ccc2nc(NC(=O)NCCCn3cccc3)sc2c1)c1c(Cl)ccc(F)c1Cl (centres unmarked) [Example 40, 1-{6-[1-(2,6-dichloro-3-fluorophenyl)ethoxy]-1,3-benzothiazol-2-yl}-3-[3-(1H-pyrrol-1-yl)propyl]urea]
CC(Oc1ccc2nc(NC(=O)NCCCN3CCC(Cc4ccccc4)CC3)sc2c1)c1c(Cl)ccc(F)c1Cl (centres unmarked) [Example 41, 1-[3-(4-benzylpiperidin-1-yl)propyl]-3-{6-[1-(2,6-dichloro-3-fluorophenyl)ethoxy]-1,3-benzothiazol-2-yl}urea]
CC(Oc1ccc2nc(NC(=O)NCCCN3CCOCC3)sc2c1)c1c(Cl)ccc(F)c1Cl (centres unmarked) [Example 42, 1-{6-[1-(2,6-dichloro-3-fluorophenyl)ethoxy]-1,3-benzothiazol-2-yl}-3-(3-morpholin-4-ylpropyl)urea]
CC(Oc1ccc2nc(NC(=O)NCCCN(C)C)sc2c1)c1c(Cl)ccc(F)c1Cl (centres unmarked) [Example 43, 1-{6-[1-(2,6-dichloro-3-fluorophenyl)ethoxy]-1,3-benzothiazol-2-yl}-3-[3-(dimethylamino)propyl]urea]
CC(Oc1ccc2nc(NC(=O)NCCCN3CCCCC3)sc2c1)c1c(Cl)ccc(F)c1Cl (centres unmarked) [Example 44, 1-{6-[1-(2,6-dichloro-3-fluorophenyl)ethoxy]-1,3-benzothiazol-2-yl}-3-(3-piperidin-1-ylpropyl)urea]
CC(Oc1ccc2nc(NC(=O)NCCCN3CCCC3=O)sc2c1)c1c(Cl)ccc(F)c1Cl (centres unmarked) [Example 45, 1-{6-[1-(2,6-dichloro-3-fluorophenyl)ethoxy]-1,3-benzothiazol-2-yl}-3-[3-(2-oxopyrrolidin-1-yl)propyl]urea]
CC(Oc1ccc2nc(NC(=O)NCCCN3CCN(Cc4c(F)cccc4Cl)CC3)sc2c1)c1c(Cl)ccc(F)c1Cl (centres unmarked) [Example 46, 1-{3-[4-(2-chloro-6-fluorobenzyl)piperazin-1-yl]propyl}-3-{6-[1-(2,6-dichloro-3-fluorophenyl)ethoxy]-1,3-benzothiazol-2-yl}urea]
CC(Oc1ccc2nc(NC(=O)NCCCN3C(C)CCCC3C)sc2c1)c1c(Cl)ccc(F)c1Cl (centres unmarked) [Example 47, 1-{6-[1-(2,6-dichloro-3-fluorophenyl)ethoxy]-1,3-benzothiazol-2-yl}-3-[3-(2,6-dimethylpiperidin-1-yl)propyl]urea]
CC(Oc1ccc2nc(NC(=O)NCCCN3CCCCCC3)sc2c1)c1c(Cl)ccc(F)c1Cl (centres unmarked) [Example 48, 1-(3-azepan-1-ylpropyl)-3-{6-[1-(2,6-dichloro-3-fluorophenyl)ethoxy]-1,3-benzothiazol-2-yl}urea]
CC(Oc1ccc2nc(NC(=O)NCCCN3CCN(Cc4ccccc4)CC3)sc2c1)c1c(Cl)ccc(F)c1Cl (centres unmarked) [Example 49, 1-[3-(4-benzylpiperazin-1-yl)propyl]-3-{6-[1-(2,6-dichloro-3-fluorophenyl)ethoxy]-1,3-benzothiazol-2-yl}urea]
CC(Oc1ccc2nc(NC(=O)NCCN3CCCCC3)sc2c1)c1c(Cl)ccc(F)c1Cl (centres unmarked) [Example 50, 1-{6-[1-(2,6-dichloro-3-fluorophenyl)ethoxy]-1,3-benzothiazol-2-yl}-3-(2-piperidin-1-ylethyl)urea]
CC(Oc1ccc2nc(NC(=O)NCCN3CCCC3)sc2c1)c1c(Cl)ccc(F)c1Cl (centres unmarked) [Example 51, 1-{6-[1-(2,6-dichloro-3-fluorophenyl)ethoxy]-1,3-benzothiazol-2-yl}-3-(2-pyrrolidin-1-ylethyl)urea]
